Read-outs that look alike come from different tables or passages of the source.
Legend:
[1] = tested on: WSU-DLCL2 lymphoma tumor xenografts; assay: In vivo tumor xenograft efficacy, WSU-DLCL2; parameters: species or system mice; conditions: for effect on tumor growth (mean tumor volume change): FIG. 18, 25 days, GDC-0941 60 mg/kg po, Formula Ib 1 mg/kg po, Rapamycin 6 mg/kg ip
Description: (§1) Xenografts were initiated with cancer cells.
(§2) Animals were monitored for regression responses.

[2] = tested on: p-AKT and p-S6RP in DoHH2, WSU-DLCL2, OPM2, and U266 cells; assay: FACS intracellular detection of p-Akt and p-S6 ribosomal protein; assay type: cell-based, human; conditions: 5 μM for 4 hrs, FIGS. 1a and 1b
Description: (§3) B cell lines (DoHH2 and WSU-DLCL2) and Myeloma cell lines (OPM2 and U266) were maintained in RPMI-1640/10% FBS in the presence of Pen/Strep and Glutamine.
Seed 10^7 cells of each cell line in 10 mL culture media in 10 cm Petri dish, 2 dishes for each cell line. • 2. […] Keep cells at 37° C., 5% CO2 incubator for 4 hours before harvesting. • 4. Transfer 1 mL of each condition (equivalent to 10^6 cells) to 5 mL FACS tube (BD) and spin at 1200 rpm for 5 min prior to fixation (harvest the other 9 mL culture-9×10^6 cells to 15 mL conical tube for Western). • 5. Aspirate the supernatant and fix the cells at room temperature with Fix/Perm Medium A (CAT #GAS001S-100) for 15 min. • 6. Wash the cells with PBS/2% FBS 1× • 7. Aspirate the supernatant and permeabilize the cells at room temperature with Fix/Perm Medium B (CAT #GAS002S-100) for 15 min. • 8. Wash the cells with PBS/2% FBS 1× • 9. Resuspend cells with 300 uL PBS/2% BSA and divide cells into 3 tubes 100 uL each (one for isotype-Rabbit IgG Alexa Fluor-647 and one for p-Akt Alexa Fluor-647 clone 193H12 and one for p-S6RP Alexa Fluor-647 clone D57.2.2E, all rabbit abs are from Cell Signaling). • 10. Add 50 ng of each Ab to corresponding tube and incubate at room temperature for 30 min. • 11. Wash the cells with PBS/2% FBS 1× • 12. Resuspend cells with 300 uL PBS/2% BSA and acquire data on FACSCalibur (BD) using CellQuest program. • 13. […]

RI1 = assay: CellTiter-Glo cell proliferation assay, RI1; assay type: cell-based; conditions: Ri-1; RI1 (B-NHL), single agent, Table 2
[3] = tested on: primary diffuse large B-cell lymphoma (DLBCL) cells from patient NHL640-A055; conditions: patient NHL640-A055, FIG. 5
Farage = assay: CellTiter-Glo cell proliferation assay, Farage; assay type: cell-based; conditions: Farage (DLBCL), single agent, Table 2
RPMI-8226 = assay: CellTiter-Glo cell proliferation assay, RPMI-8226; conditions: Homo sapiens, RPMI-8226, read-out: EC50 (μM) GDC-0941 (single agent)
Description: (§4) The in vitro potency of the combinations of Formula I compounds with chemotherapeutic agents was measured by the cell proliferation assay of Example 15; the CellTiter-Glo® Luminescent Cell Viability Assay, commercially available from Promega Corp., Madison, Wis. […] The homogeneous assay procedure involves adding the single reagent (CellTiter-Glo® Reagent) directly to cells cultured in serum-supplemented medium. Cell washing, removal of medium and multiple pipetting steps are not required. The system detects as few as 15 cells/well in a 384-well format in 10 minutes after adding reagent and mixing.
(§5) The individual measured EC50 values of the Formula I compounds and of the chemotherapeutic agent against the particular cell are compared to the combination EC50 value. The combination index (CI) score is calculated by the Chou and Talalay method (Chou, T. and Talalay, P. (1984) Adv. Enzyme Regul. 22:27-55). A CI less than 0.8 indicates synergy. […] The strength of synergy is assessed according to Chou and Talalay.
(§6) The assay assesses the ability of compounds to enter cells and inhibit cell proliferation. The assay principle is based on the determination of the number of viable cells present by quantitating the ATP present in a homogenous assay where addition of the Cell-Titer Glo reagent results in cell lysis and generation of a luminescent signal through the luciferase reaction. […]

DoHH2 = assay: CellTiter-Glo cell proliferation assay, DoHH2; conditions: for EC50: Homo sapiens
Description: as §4
The individual measured EC50 values of the Formula I compounds and of the chemotherapeutic agent against the particular cell are compared to the combination EC50 value. The combination index (CI) score is calculated by the Chou and Talalay method (Chou, T. and Talalay, P. (1984) Adv. Enzyme Regul. 22:27-55). A CI less than 0.8 indicates synergy. A CI between 0.8 and 1.2 indicates additivity. A CI greater than 1.2 indicates antagonism. The strength of synergy is assessed according to Chou and Talalay.
The assay assesses the ability of compounds to enter cells and inhibit cell proliferation. The assay principle is based on the determination of the number of viable cells present by quantitating the ATP present in a homogenous assay where addition of the Cell-Titer Glo reagent results in cell lysis and generation of a luminescent signal through the luciferase reaction. The luminescent signal is proportional to the amount of ATP present.
Procedure: Day 1—Seed Cell Plates (384-well black, clear bottom, microclear, TC plates with lid from Falcon #353962), Harvest cells, Seed cells at 1000 cells per 54 μl per well into 384 well Cell Plates for 3 days assay. Cell Culture Medium: RPMI or DMEM high glucose, 10% Fetal Bovine Serum, 2 mM L-Glutamine, P/S. Incubate O/N at 37 C, 5% CO2.
Day 2—Add Drug to Cells, Compound Dilution, DMSO Plates (serial 1:2 for 9 points), Add 20 ul compounds at 10 mM in the 2nd column of 96 well plate. […]

SUDHL5 = assay: CellTiter-Glo cell proliferation assay, SUDHL5; assay type: cell-based; conditions: Homo sapiens, SU-DHL-5; SUDHL5 (DLBCL), single agent, Table 2
Jeko1 = assay: CellTiter-Glo cell proliferation assay, Jeko1; assay type: cell-based; conditions: Homo sapiens, JeKo-1; Jeko1 (MCL), single agent, Table 2
SUDHL6 = assay: CellTiter-Glo cell proliferation assay, SUDHL6; assay type: cell-based; conditions: Homo sapiens, SU-DHL-6; SUDHL6 (DLBCL), single agent, Table 2
[4] = tested on: BJAB lymphoma tumor xenografts; assay: In vivo tumor xenograft efficacy, BJAB; parameters: species or system mice
Description: as §1, §2

NCI-H929 = assay: CellTiter-Glo cell proliferation assay, NCI-H929; conditions: Homo sapiens, NCI-H929, read-out: EC50 (μM) GDC-0941 (single agent)
Description: as §4, §5, §6

DB = assay: CellTiter-Glo cell proliferation assay, DB; assay type: cell-based; conditions: Homo sapiens; DB (DLBCL), single agent, Table 2
SUDHL4 = assay: CellTiter-Glo cell proliferation assay, SUDHL4; assay type: cell-based; conditions: Homo sapiens, SU-DHL-4; SUDHL4 (DLBCL), single agent, Table 2
MOLP-8 = assay: CellTiter-Glo cell proliferation assay, MOLP-8; conditions: Homo sapiens, MOLP-8, read-out: EC50 (μM) GDC-0941 (single agent)
Description: as §4, §5, §6

[5] = tested on: p-AKT and p-S6RP in DoHH2, WSU-DLCL2, OPM2, and U266 cells; assay: Western blotting for p-Akt, p-BAD and p-S6 ribosomal protein; assay type: cell-based, human; conditions: 5 μM for 4 hrs, FIG. 2
Description: Cells were treated as indicated and lysates analyzed by Western Blotting. Beta Actin blotting indicates approximately equal loading of lysates in each lane.
as §3
Protocol: • 1. Seed 10^7 cells of each cell line in 10 mL culture media in 10 cm Petri dish, 2 dishes for each cell line. • 2. […] Keep cells at 37° C., 5% CO2 incubator for 4 hours before harvesting. • 4. Harvest 9 mL culture (equivalent to 9×10^6 cells) to 15 mL conical tube and pellet and make cell lysates with 1×SDS sample buffer. Transfer the other 1 mL of each condition (equivalent to 1×10^6 cells) to 5 mL FACS tube (BD) for FACS. • 5. Wash cells once with cold PBS. • 6. Measure the OD of the protein samples and prepare the samples with NuPAGE electrophoresis system reagents to load 20 ug of each. • 7. Mix each protein sample for electrophoresis with appropriate amount of NuPAGE LDS sample buffer and Reducing Agent and apply 70° C. heat for 10 min. • 8. Load 10 uL of SeeBlue Plus2 Pre-stained standard and 20 ug of each sample into 4-12% NuPAGE Norvex Bis-Tris Gel and run with MES-SDS buffer in the presence of antioxidant (135 volts for 1 hour in the XCell SureLock Mini-Cell apparatus). • 9. Transfer gels to the blotting membrane using iBlot apparatus. • 10. […]

[6] = tested on: DoHH2 lymphoma tumor xenografts; assay: In vivo tumor xenograft efficacy, DoHH2; conditions: FIG. 8, 34 days; GDC-0941 73 mg/kg po daily 21 days, rituximab 5 mg/kg iv qwk×3, CHOP
Description: The efficacy of the combinations of the invention may be measured in vivo by implanting allografts or xenografts of cancer cells in rodents and treating the tumor-bearing animals with the combinations.
The animals were fed ad libitum water (reverse osmosis, 1 ppm Cl) and NIH 31 Modified and Irradiated Lab Diet® consisting of 18.0% crude protein, 5.0% crude fat, and 5.0% crude fiber. The mice were housed on irradiated ALPHA-Dri® Bed-O'Cobs® Laboratory Animal Bedding in static microisolators on a 12-hour light cycle at 21-22° C. (70-72° F.) and 40-60% humidity.
Xenografts were initiated with cancer cells. […] On the day of tumor implant, each test mouse received 1×10^7 cells (0.2 mL) implanted subcutaneously in the right flank, and tumor growth was monitored as the average size approached the target range of 100 to 150 mm3. […] Volume was calculated using the formula: Tumor Volume (mm^3)=(w^2×l)/2 […]
Tumors were measured twice each week using calipers. Mice were monitored individually, and each animal was euthanized when its tumor reached a volume of 1500 mm3 or at the end of the study on Day 40, whichever came first. […] The time to endpoint (TTE) for each mouse was calculated from the following equation: TTE (days)=[log10(endpoint volume,mm^3)−b]/m […]

[7] = tested on: primary follicular lymphoma cells from patient NHL600; assay: Cell-Titer Glo survival and proliferation assay, primary follicular lymphoma cells; assay type: cell-based, human; conditions: patient NHL600, FIG. 4, single agent
Description: GDC-0464 (Genentech, Inc.) is a potent thienopyrimidine PI3K inhibitor (US 2008/0076758). LY294002 (Eli Lilly & Co., CAS Reg. No. 154447-36-6) is also a potent inhibitor of PI3 kinases (WO 2003/035099).

Ramos = assay: CellTiter-Glo cell proliferation assay, Ramos; assay type: cell-based; conditions: Homo sapiens; Ramos (Burkit's), single agent, Table 2
Toledo = assay: CellTiter-Glo cell proliferation assay, Toledo; assay type: cell-based; conditions: Homo sapiens; Toledo (DLBCL), single agent, Table 2
Rec1 = assay: CellTiter-Glo cell proliferation assay, Rec1; assay type: cell-based; conditions: Homo sapiens; Rec1 (B-NHL), single agent, Table 2
Bjab = assay: CellTiter-Glo cell proliferation assay, Bjab; conditions: Homo sapiens
Description: (§7) The homogeneous assay procedure involves adding the single reagent (CellTiter-Glo® Reagent) directly to cells cultured in serum-supplemented medium. Cell washing, removal of medium and multiple pipetting steps are not required. The system detects as few as 15 cells/well in a 384-well format in 10 minutes after adding reagent and mixing.
(§8) The individual measured EC50 values of the Formula I compounds and of the chemotherapeutic agent against the particular cell are compared to the combination EC50 value. […] A CI less than 0.8 indicates synergy. A CI between 0.8 and 1.2 indicates additivity. A CI greater than 1.2 indicates antagonism. The strength of synergy is assessed according to Chou and Talalay.
(§9) The CellTiter-Glo® Luminescent Cell Viability Assay, including reagents and protocol are commercially available (Promega Corp., Madison, Wis., Technical Bulletin TB288). The assay assesses the ability of compounds to enter cells and inhibit cell proliferation. The assay principle is based on the determination of the number of viable cells present by quantitating the ATP present in a homogenous assay where addition of the Cell-Titer Glo reagent results in cell lysis and generation of a luminescent signal through the luciferase reaction. […]
(§10) Day 5—Develop Plates, Thaw Cell Titer Glo Buffer at room temperature. […] Read luminescence on Analyst HT Plate Reader (half second per well). […]

OPM2 = assay: CellTiter-Glo cell proliferation assay, OPM2
Description: as §7, §8, §9, §10

OciLy19 = assay: CellTiter-Glo cell proliferation assay, OciLy19; assay type: cell-based; conditions: Homo sapiens, OCI-LY19; OciLy19 (DLBCL), single agent, Table 2
EJM = assay: CellTiter-Glo cell proliferation assay, EJM; assay type: cell-based; conditions: Homo sapiens, read-out: EC50 (μM) GDC-0941 (single agent), Table 4
MM1.S = assay: CellTiter-Glo cell proliferation assay, MM1.S; conditions: Homo sapiens, read-out: EC50 (μM) GDC-0941 (single agent)
Description: as §4, §5, §6

MC116 = assay: CellTiter-Glo cell proliferation assay, MC116; assay type: cell-based; conditions: Homo sapiens; MC116 (NHL), single agent, Table 2
Granta519 = assay: CellTiter-Glo cell proliferation assay, Granta519; assay type: cell-based; conditions: Homo sapiens, Granta-519; Granta519 (MCL), single agent, Table 2
[8] = tested on: multiple myeloma OPM-2 cell xenografts; assay: In vivo tumor xenograft efficacy, OPM-2; parameters: species or system mice; conditions: FIG. 13, 24 days; GDC-0941 73 mg/kg po, bortezomib 0.5 mg/kg iv, lenalidomide 25 mg/kg ip, dexamethasone 3 mg/kg po
Description: as §1, §2

WSUNHL = assay: CellTiter-Glo cell proliferation assay, WSUNHL; assay type: cell-based; conditions: Homo sapiens, WSU-NHL, single agent, Table 2
KSM-12-BM = assay: CellTiter-Glo cell proliferation assay, KSM-12-BM; assay type: cell-based; conditions: Homo sapiens, read-out: EC50 (μM) GDC-0941 (single agent), Table 4
HT = assay: CellTiter-Glo cell proliferation assay, HT; assay type: cell-based; conditions: Homo sapiens; HT (DLBCL), single agent, Table 2
SC1 = assay: CellTiter-Glo cell proliferation assay, SC1; assay type: cell-based; conditions: Homo sapiens, SC-1; SC1 (DLBCL), single agent, Table 2
WSU-DLCL2 = assay: CellTiter-Glo cell proliferation assay, WSU-DLCL2; conditions: Homo sapiens
Description: as §4, §5, §6

[9] = tested on: NCI-H929 multiple myeloma xenografts; assay: In vivo tumor xenograft efficacy, NCI-H929; parameters: species or system mice; conditions: for antitumor activity (mean tumor volume change): lenalidomide 25 mg/kg ip
Description: as §1, §2

[10] = FIG. 16, 33 days, GDC-0941 75 mg/kg po, bortezomib 0.5 mg/kg iv, dexamethasone 3 mg/kg po

Question: How did the “effect on tumor growth (mean tumor volume change)” value [1] turn out when `Cc1c(CN2CCN(C(=O)[C@H](C)O)CC2)sc2c(N3CCOCC3)nc(-c3cnc(N)nc3)nc12` [Formula Ib, (S)-1-(4-((2-(2-aminopyrimidin-5-yl)-7-methyl-4-morpholinothieno[3,2-d]pyrimidin-6-yl)methyl)piperazin-1-yl)-2-hydroxypropan-1-one] was run?
Answer: little effect on tumor growth

Question: Which “p-AKT signal (flow cytometry)” value [2] does the source give for `CS(=O)(=O)N1CCN(Cc2cc3nc(-c4cccc5[nH]ncc45)nc(N4CCOCC4)c3s2)CC1` [GDC-0941, 4-(2-(1H-indazol-4-yl)-6-((4-(methylsulfonyl)piperazin-1-yl)methyl)thieno[3,2-d]pyrimidin-4-yl)morpholine] here?
Answer: abolished p-AKT signal

Question: What about the “p-S6RP signal (flow cytometry)” value [2] of the same compound?
Answer: reduced or abolished p-S6RP signal

Question: What about the EC50 (RI1) of the same compound?
Answer: 40 nM

Question: What about the “cell viability, relative potency” value [3] of the same compound?
Answer: significantly more potent than doxorubicin

Question: What about the “antitumor activity (mean tumor volume change)” value ([1]; FIG. 7, 20 days, GDC-0941 73 mg/kg po daily 21 days, rituximab 5 mg/kg days 0, 7, 14, CHOP from day 0) of the same compound?
Answer: only modest activity

Question: What about the “effect on tumor growth (mean tumor volume change)” value [1] of the same compound?
Answer: little effect on tumor growth

Question: And the EC50 (Farage)?
Answer: 240 nM

Question: What about the EC50 (RPMI-8226) of the same compound?
Answer: 2.53 µM

Question: What about the EC50 (DoHH2; DOHH-2) of the same compound?
Answer: 0.26 µM

Question: What about the EC50 (DoHH2; DOHH-2, read-out: EC50 (μM) GDC-0941 (single agent)) of the same compound?
Answer: 0.16 µM

Question: What about the EC50 (SUDHL5) of the same compound?
Answer: 80 nM

Question: And the EC50 (Jeko1)?
Answer: 320 nM

Question: And the EC50 (SUDHL6)?
Answer: 10 nM

Question: And the “antitumor activity (mean tumor volume change)” value ([4]; FIG. 10, 25 days, GDC-0941 73 mg/kg po daily 21 days, CHOP from day 0)?
Answer: only modest activity

Question: And the “antitumor activity (mean tumor volume change)” value ([4]; FIG. 11, 25 days, GDC-0941 75 mg/kg po qd×21, rituximab 5 mg/kg days 0, 7, 14)?
Answer: only modest activity

Question: And the EC50 (NCI-H929)?
Answer: 0.43 µM

Question: What about the EC50 (DB) of the same compound?
Answer: ≥ 10000 nM

Question: And the EC50 (SUDHL4)?
Answer: 1350 nM

Question: And the EC50 (MOLP-8)?
Answer: 0.06 µM

Question: And the “p-AKT signal (western blotting)” value [5]?
Answer: significantly reduced (where present)

Question: And the “p-S6RP signal (western blotting)” value [5]?
Answer: significantly reduced (where present)

Question: And the “antitumor activity (mean tumor volume change)” value [6]?
Answer: significantly different than vehicle

Question: And the “potency against primary cancer cells (viable cells)” value [7]?
Answer: surprising and unexpected degree of potency

Question: And the EC50 (Ramos)?
Answer: ≥ 10000 nM

Question: And the EC50 (Toledo)?
Answer: ≥ 10000 nM

Question: What about the EC50 (Rec1) of the same compound?
Answer: 160 nM

Question: And the EC50 (Bjab)?
Answer: 0.33 µM

Question: What about the EC50 (Bjab; read-out: EC50 (μM) GDC-0941 (single agent)) of the same compound?
Answer: 0.33 µM

Question: What about the EC50 (OPM2; Homo sapiens, OPM-2, read-out: EC50 (μM) GDC-0941 (single agent)) of the same compound?
Answer: 1.23 µM

Question: What about the EC50 (OciLy19) of the same compound?
Answer: 320 nM

Question: What about the EC50 (EJM) of the same compound?
Answer: 1.5 µM

Question: What about the EC50 (MM1.S) of the same compound?
Answer: 0.22 µM

Question: What about the EC50 (MC116) of the same compound?
Answer: 160 nM

Question: What about the EC50 (Granta519) of the same compound?
Answer: 210 nM

Question: And the “antitumor activity (mean tumor volume change)” value [8]?
Answer: indistinguishable and moderate tumor activity

Question: And the EC50 (WSUNHL)?
Answer: 160 nM

Question: And the EC50 (KSM-12-BM)?
Answer: > 5 µM

Question: And the EC50 (HT)?
Answer: 2840 nM

Question: What about the EC50 (SC1) of the same compound?
Answer: ≥ 10000 nM

Question: And the EC50 (WSU-DLCL2; WSUDLCL2)?
Answer: 0.13 µM

Question: What about the EC50 (WSU-DLCL2; WSUDLCL2, read-out: EC50 (μM) GDC-0941 (single agent)) of the same compound?
Answer: 0.17 µM

Question: For `CC(C)C[C@H](NC(=O)[C@H](Cc1ccccc1)NC(=O)c1cnccn1)B(O)O` [bortezomib, [(1R)-3-methyl-1-({(2S)-3-phenyl-2-[(pyrazin-2-ylcarbonyl)amino]propanoyl}amino)butyl]boronic acid], which “antitumor activity (mean tumor volume change)” value ([9]; FIG. 12, 22 days, single agents, GDC-0941 73 mg/kg po, bortezomib 1 mg/kg iv, dexamethasone 10 mg/kg po) is on record?
Answer: exceeded by the efficacy of bortezomib

Question: What about the partial responses ([9]; FIG. 12, cohorts of 10 mice) of the same compound?
Answer: 3

Question: And the “antitumor activity (mean tumor volume change)” value [9, 10]?
Answer: modest activity

Question: What about the “antitumor activity (mean tumor volume change)” value [8] of the same compound?
Answer: sub-clinical response which was not different than that of vehicle

Question: For `C[C@@H]1C[C@H]2[C@@H]3CCC4=CC(=O)C=C[C@]4(C)[C@@]3(F)[C@@H](O)C[C@]2(C)[C@@]1(O)C(=O)CO` [dexamethasone, (8S,9R,10S,11S,13S,14S,16R,17R)-9-fluoro-11,17-dihydroxy-17-(2-hydroxyacetyl)-10,13,16-trimethyl-6,7,8,11,12,14,15,16-octahydrocyclopenta[a]phenanthren-3-one, reference compound], which “single agent activity on viable cells (dose-response)” value (DoHH2; B-NHL cell line DoHH2, FIG. 3) is on record?
Answer: relatively impotent activity

Question: And the “antitumor activity (mean tumor volume change)” value [9, 10]?
Answer: modest activity

Question: And the “response in cell proliferation assay” value (OPM2; multiple myeloma OPM2 cells, FIG. 6, single agent)?
Answer: relatively weak response

Question: And the “antitumor activity (mean tumor volume change)” value [8]?
Answer: indistinguishable and moderate tumor activity

Question: Which results are given for `Nc1cccc2c1CN(C1CCC(=O)NC1=O)C2=O` (stereo not shown) [lenalidomide, 3-(4-amino-1-oxoisoindolin-2-yl)piperidine-2,6-dione]?
Answer: antitumor activity (mean tumor volume change) [9, 10]: modest activity; antitumor activity (mean tumor volume change) [8]: indistinguishable and moderate tumor activity

Reference: patent publication US9335320B2, “Combinations of phosphoinositide 3-kinase inhibitor compounds and chemotherapeutic agents for the treatment of hematopoietic malignancies” (Genentech, Inc., priority 2009, dated 2016)
